Source: patent US20250368648A1, “MULTI-CYCLIC IRAK AND FLT3 INHIBITING COMPOUNDS AND USES THEREOF” (CHILDREN'S HOSPITAL MEDICAL CENTER, priority 2022, published 2025)

How the values were obtained:
[1] = molecular target: T1, IRAK4 (Homo sapiens, UniProt Q9NWZ3); assay: RBC HotSpot Kinase Assay, IRAK4; format: biochemical; parameters: purchased RBC (Reaction Biology) HotSpot assay; details: HotSpot functional assay, isolated kinase enzyme, 33P-ATP
T1 sequence (Q9NWZ3 1-460): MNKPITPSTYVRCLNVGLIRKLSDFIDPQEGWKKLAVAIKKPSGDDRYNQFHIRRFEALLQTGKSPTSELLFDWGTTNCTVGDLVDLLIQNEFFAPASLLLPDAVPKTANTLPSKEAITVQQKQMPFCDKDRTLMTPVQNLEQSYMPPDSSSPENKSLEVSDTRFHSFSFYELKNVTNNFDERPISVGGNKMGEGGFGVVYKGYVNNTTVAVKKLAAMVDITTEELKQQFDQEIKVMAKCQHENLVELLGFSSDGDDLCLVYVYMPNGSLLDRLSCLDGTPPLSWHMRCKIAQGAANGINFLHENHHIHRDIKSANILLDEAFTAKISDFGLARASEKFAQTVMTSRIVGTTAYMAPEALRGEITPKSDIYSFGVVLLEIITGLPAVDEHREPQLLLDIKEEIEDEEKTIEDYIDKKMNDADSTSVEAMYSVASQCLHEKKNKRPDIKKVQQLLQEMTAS
Outline: (§1)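 Isolated kinases, possibly truncated or lacking regulatory receptor regions, were preincubated with compound for 20 min at room temp in 20 mM Hepes pH 7.5, 10 mM MgCl2, 1 mM EGTA, 2 mM DTT, 1% DMSO. Reactions were started with ^33P-ATP and run 2 h at room temperature; activity was read by P81 filter binding.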

[2] = molecular target: T1, IRAK4; assay: Reaction Biology NanoBRET target engagement assay, IRAK4; format: cell-based; details: HEK-293 cells transfected with Kinase-NanoLuc fusion vector, live cells
Text: The NanoBRET assay measures kinase engagement in real time in the context of the intact cell. Unlike the previously described biochemical kinase assay methodologies in Examples 47 and 48, the NanoBRET assay measures the binding and activity characteristics under equilibrium conditions using full-length kinases in the presence of cellular concentrations of ATP in live, uncompromised cells. […] The assay uses a Kinase-NanoLuc® fusion vector expressing a kinase protein to which a luciferase tag has been added, a cell-permeant fluorescent NanoBRET™ tracer, a NanoLuc® substrate, and an extracellular NanoLuc® inhibitor. Upon expression of the luciferase-tagged kinase, cells will produce a strong BRET signal only in the presence of the NanoBRET™ tracer. The extracellular NanoLuc® inhibitor ensures that the BRET signal observed emanates only from live cells. Because the BRET signal has tight distance constraints, addition of the test compound will decrease the BRET signal if the compound competes with the NanoBRET™ tracer for binding to the kinase domain. Under the appropriate tracer conditions established by the manufacturer, quantitative intracellular affinity and relative potency can then be determined using Mass Action model equations.
HEK-293 cells were purchased from ATCC. FuGENEHD Transfection Reagent, Kinase-NanoLucfusion plasmids, Transfection Carrier DNA, NanoBRETTracers and dilution buffer, NanoBRETNano-Glo Substrate, Extracellular NanoLucInhibitor were obtained from Promega.
Assays were conducted following Promega assay protocol with some modifications. HEK-293 Cells were transiently transfected with Kinase-NanoLucFusion Vector DNA by FuGENEHD Transfection Reagent. Testing compounds were delivered into 384 well assay plate by Echo 550 (LabcyteInc, Sunnyvale, CA). Transfected cells were harvested and mixed with NanoBRETTracer Reagent and dispensed into 384 well plates and incubated at 37° C. in 5% CO2 cell culture incubator for 1 hour. The NanoBRETNano-Glo Substrate plus Extracellular NanoLucInhibitor Solution were added into the wells of the assay plate and incubated for 2-3 minutes at room temperature. The donor emission wavelength (460 nm) and acceptor emission wavelength (600 nm) were measured in the EnVisionplate reader. The BRET Ratios were calculated. BRET Ratio=[(Acceptor sample÷Donor sample)−(Acceptor no-tracer control÷Donor no-tracer control)]. The IC50 values of compounds were calculated with Prism GraphPad program.
• 1). Cultivate HEK-293 cells (70-80% confluence) appropriately prior to assay. Trypsinize and collect HEK-293 cells. • 2). Prepare lipid: DNA complexes as follows: • a. Prepare a 10 μg/ml solution of DNA in Opti-MEM without serum that consists of the following ratios of carrier DNA and DNA encoding NanoLuc® fusion. […] of Transfection Carrier DNA, […] of NanoLuc fusion vector DNA and 1 mL of Opti-MEM without phenol red. Mix thoroughly. • b. Add 30 μl of FuGENE HD Transfection Reagent into each milliliter of DNA mixture to form lipid: DNA complex. • c. Mix by inversion 10 times. • d. Incubate at ambient temperature for 20 minutes to allow complexes to form. • 3). In a sterile, conical tube, mix 1 part of lipid:DNA complex with 20 parts of HEK-293 cells in suspension. Mix gently by inversion 5 times. • 4). Dispense cells+lipid: DNA complex into a sterile tissue culture dish and incubate for 22-24 hours.
Each test compound is delivered from the compound source plate to the wells of 384-well white NBS plate by Echo 550.
3. Preparation of Cells with NanoBRET™ Tracer Reagent • 1). Remove medium from dish with transfected HEK-293 cells via aspiration, trypsinize and allow cells to dissociate from the dish. • 2). Neutralize trypsin using medium containing serum and centrifuge at 200× g for 5 minutes to pellet the cells. Adjust the cell density to […] cells/mL in Opti-MEM without phenol red. • 3). Prepare Complete 20× NanoBRET™ Tracer Reagent with Tracer Dilution Buffer. • 4). […]

[3] = molecular target: T2, IRAK1 (Homo sapiens, UniProt P51617); assay: RBC HotSpot Kinase Assay, IRAK1; format: biochemical; details: HotSpot functional assay, isolated kinase enzyme, 33P-ATP
T2 construct: purchased RBC (Reaction Biology) HotSpot assay
T2 sequence (P51617 whole entry): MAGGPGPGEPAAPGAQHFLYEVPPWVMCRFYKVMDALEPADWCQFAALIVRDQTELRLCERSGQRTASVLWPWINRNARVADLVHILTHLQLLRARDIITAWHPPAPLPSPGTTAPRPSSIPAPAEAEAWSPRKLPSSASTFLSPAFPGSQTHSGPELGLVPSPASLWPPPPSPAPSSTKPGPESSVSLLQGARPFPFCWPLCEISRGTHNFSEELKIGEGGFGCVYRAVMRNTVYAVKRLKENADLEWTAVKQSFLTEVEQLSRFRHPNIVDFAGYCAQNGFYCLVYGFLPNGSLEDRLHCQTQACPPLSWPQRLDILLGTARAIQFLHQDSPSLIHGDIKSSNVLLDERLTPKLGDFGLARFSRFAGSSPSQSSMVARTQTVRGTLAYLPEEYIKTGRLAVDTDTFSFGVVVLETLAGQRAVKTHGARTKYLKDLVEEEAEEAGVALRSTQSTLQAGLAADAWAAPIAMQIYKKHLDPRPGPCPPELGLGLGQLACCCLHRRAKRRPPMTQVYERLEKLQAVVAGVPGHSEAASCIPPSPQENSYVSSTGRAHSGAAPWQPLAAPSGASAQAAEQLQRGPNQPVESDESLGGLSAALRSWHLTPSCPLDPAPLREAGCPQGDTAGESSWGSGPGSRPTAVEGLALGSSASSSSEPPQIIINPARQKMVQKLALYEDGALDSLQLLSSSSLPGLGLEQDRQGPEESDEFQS
Outline: as §1

Row | SMILES | IC50 [1] [µM] | IC50 [2] [µM] | IC50 [3] [µM]
1 | COc1cc2ncc(-c3nc(N[C@H]4CNCC[C@@H]4F)c(F)cc3F)n2nc1C(C)(O)C(F)(F)F (single isomer, unassigned) [Compound 77a] | 0.016 | 0.0004 | 0.362
2 | COc1cc2ncc(-c3nc(N[C@H]4CNC[C@@H]4F)c(F)cc3F)n2nc1C(C)(O)C(F)(F)F (single isomer, unassigned) [Compound 80a] | 0.024 | 0.005 | 1.55
3 | COc1cc2ncc(-c3nc(N[C@@H]4CCCNC4)c(F)cc3F)n2nc1C(C)(O)C(F)(F)F (single isomer, unassigned) [Compound 81a] | 0.059 | 0.0006 | 0.589
4 | COc1cc2ncc(-c3nc(N[C@H]4CNCC[C@@H]4F)c(F)cc3F)n2nc1C1CC2(CCC2)C1 [Compound 10a, 3,5-difluoro-N-((3S,4S)-4-fluoropiperidin-3-yl)-6-(7-methoxy-6-(spiro[3.3]heptan-2-yl)imidazo[1,2-b]pyridazin-3-yl)pyridin-2-amine] | 0.022 | 0.064 | 0.072
5 | COc1cc2ncc(-c3nc(N[C@H]4CNC[C@@H]4F)c(F)cc3F)n2nc1C1CC2(CCC2)C1 [Compound 12a, 3,5-difluoro-N-((3S,4S)-4-fluoropyrrolidin-3-yl)-6-(7-methoxy-6-(spiro[3.3]heptan-2-yl)imidazo[1,2-b]pyridazin-3-yl)pyridin-2-amine] | 0.006 | 0.071 | 0.088
6 | COc1cc2ncc(-c3nc(N[C@H]4CNCC[C@@H]4F)c(F)cc3F)n2nc1C1CCC1 [Compound 15a, 6-(6-cyclobutyl-7-methoxyimidazo[1,2-b]pyridazin-3-yl)-3,5-difluoro-N-((3S,4S)-4-fluoropiperidin-3-yl)pyridin-2-amine] | 0.002 | 0.001 | 0.012
7 | COc1cc2ncc(-c3nc(N[C@H]4CNCC[C@@H]4F)c(F)cc3F)n2nc1C12CC(C1)C2 [Compound 67a, 6-(6-(bicyclo[1.1.1]pentan-1-yl)-7-methoxyimidazo[1,2-b]pyridazin-3-yl)-3,5-difluoro-N-((3S,4S)-4-fluoropiperidin-3-yl)pyridin-2-amine] | 0.003 | 0.005 | 0.009
